In ChEMBL document CHEMBL1139210, “9,19-cyclolanostane derivatives from the roots of Actaea pachypoda” (J Nat Prod, 2007):
The source made the active and inactive calls. No cut-off for these calls is given here.

Legend:
[1] = species on record: Homo sapiens; assay: (§1) Inhibition of activation of human complement
[2] = molecular target: T1, Estrogen receptor (Homo sapiens) (UniProt P03372); assay: Activity against human ERalpha expressed in recombinant yeast cells upto 500 ug/mL; format: cell-based
T1 sequence (whole entry): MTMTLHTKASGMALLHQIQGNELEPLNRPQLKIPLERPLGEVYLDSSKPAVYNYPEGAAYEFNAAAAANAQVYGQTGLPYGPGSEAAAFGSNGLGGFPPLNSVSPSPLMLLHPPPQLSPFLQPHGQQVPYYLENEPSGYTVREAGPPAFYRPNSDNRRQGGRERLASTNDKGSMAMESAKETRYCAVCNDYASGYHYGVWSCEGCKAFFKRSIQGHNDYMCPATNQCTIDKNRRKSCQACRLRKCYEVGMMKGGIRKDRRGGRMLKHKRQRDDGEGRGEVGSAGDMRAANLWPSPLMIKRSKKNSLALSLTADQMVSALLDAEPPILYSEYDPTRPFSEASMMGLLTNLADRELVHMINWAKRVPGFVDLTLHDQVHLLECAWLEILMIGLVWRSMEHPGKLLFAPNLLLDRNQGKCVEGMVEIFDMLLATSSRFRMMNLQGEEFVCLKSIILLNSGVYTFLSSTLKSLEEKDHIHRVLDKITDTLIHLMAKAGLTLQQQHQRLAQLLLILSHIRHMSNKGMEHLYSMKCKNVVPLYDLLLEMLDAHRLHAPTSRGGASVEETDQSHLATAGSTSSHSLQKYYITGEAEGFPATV

[3] = system: SK-MEL; assay: Cytotoxicity against SK-MEL cells upto 25 ug/mL by neutral red assay; format: cell-based; details: human
[4] = system: HL-60; assay: Antioxidant activity in HL60 cells by DCFH-DA method upto 20ug/mL; format: functional, cell-based; details: Homo sapiens
[5] = system: KB; assay: Cytotoxicity against KB cells upto 25 ug/mL by neutral red assay; format: cell-based; details: human
[6] = system: BT-549; assay: Cytotoxicity against BT549 cells upto 25 ug/mL by neutral red assay; format: cell-based; details: human
[7] = system: Vero; assay: Cytotoxicity against Vero cells upto 25 ug/mL by neutral red assay; format: cell-based; details: chlorocebus sabaeus
[8] = system: LLC-PK1; assay: Cytotoxicity against LLC-PK1 cells upto 25 ug/mL by neutral red assay; format: cell-based, Sus scrofa; details: pig
[9] = system: SK-OV-3; assay: Cytotoxicity against SKOV3 cells upto 25 ug/mL by neutral red assay; format: cell-based; details: human
[10] = as §1

With `C[C@H]1[C@H]2[C@H](C[C@@]3(C)C4=CC[C@H]5C(C)(C)[C@@H](O[C@@H]6OC[C@@H](O)[C@H](O)[C@H]6O)CC[C@@]56C[C@@]46CC[C@]23C)O[C@@]2(O[C@H]2C(C)(C)O)[C@@H]1O` the Activity [1] was “inactive”, the Activity [2] was “inactive” and the Activity [3] was “Not Active”. For the same compound, the Activity [4] was “inactive”, the Activity [5] was “Not Active” and the Activity [6] was “Not Active”. The Activity [7] was “Not Active”, the Activity [8] was “Not Active” and the Activity [9] was “Not Active”.
For `CC(=O)O[C@@H]1C[C@@]23C[C@@]24CC[C@H](O[C@@H]2OC[C@@H](O)[C@H](O)[C@H]2O)C(C)(C)[C@@H]4CCC3[C@]2(C)C[C@@H]3O[C@@]4(O[C@H]4C(C)(C)O)[C@H](O)[C@@H](C)[C@@H]3[C@@]12C` (some centres undefined), the Activity [1] was “inactive”, the Activity [2] was “inactive” and the Activity [3] was “Not Active”. For the same compound, the Activity [4] was “inactive”, the Activity [5] was “Not Active” and the Activity [6] was “Not Active”. The Activity [7] was “Not Active”, the Activity [8] was “Not Active” and the Activity [9] was “Not Active”.
For `CC(=O)O[C@@H]1C[C@@]23C[C@@]24CC[C@H](O)C(C)(C)[C@@H]4CC[C@H]3[C@]2(C)[C@@H](O)[C@]34O[C@H](C[C@@H](C)[C@@H]3[C@@]12C)[C@@H](C(C)(C)O)O4`, the IC50 [10] was 187 µM, the Activity [2] was “inactive” and the Activity [3] was “Not Active”. For the same compound, the Activity [4] was “inactive”, the Activity [5] was “Not Active” and the Activity [6] was “Not Active”. The Activity [7] was “Not Active”, the Activity [8] was “Not Active” and the Activity [9] was “Not Active”.
In the case of `CC(=O)O[C@H](C[C@@H](C)[C@H]1C(=O)[C@H](O)[C@@]2(C)[C@@H]3CC[C@H]4C(C)(C)[C@@H](O[C@@H]5OC[C@@H](O)[C@H](O)[C@H]5O)CC[C@@]45C[C@@]35CC[C@]12C)[C@H]1OC1(C)C`, the Activity [1] is reported as “inactive”, the Activity [2] is reported as “inactive” and the Activity [3] is reported as “Not Active”. For the same compound, the Activity [4] was “inactive”, the Activity [5] was “Not Active” and the Activity [6] was “Not Active”. The Activity [7] was “Not Active”, the Activity [8] was “Not Active” and the Activity [9] was “Not Active”.
`CC1(C)CC[C@]2(C(=O)O)CC[C@]3(C)C(=CC[C@@H]4[C@@]5(C)CC[C@H](O)C(C)(C)[C@@H]5CC[C@]43C)[C@@H]2C1` [OLEANOLIC_ACID] showed an IC50 [10] of 78 µM.
`C[C@H]1[C@H](C)CC[C@]2(C(=O)O)CC[C@]3(C)C(=CC[C@@H]4[C@@]5(C)CC[C@H](O)C(C)(C)[C@@H]5CC[C@]43C)[C@H]12` [URSOLIC ACID] gave an IC50 [10] of 55 µM.
In the case of `C[C@@H]1C[C@H]2O[C@@]3(O[C@@H]2C(C)(C)O)[C@H](O)[C@@]2(C)[C@@H]4CC[C@H]5C(C)(C)[C@@H](O[C@@H]6OC[C@@H](O)[C@H](O)[C@H]6O)CC[C@@]56C[C@@]46CC[C@]2(C)[C@@H]13`, the Activity [1] is reported as “inactive”, the Activity [2] is reported as “inactive” and the Activity [3] is reported as “Not Active”. For the same compound, the Activity [4] was “inactive”, the Activity [5] was “Not Active” and the Activity [6] was “Not Active”. For the same compound, the Activity [7] was “Not Active”, the Activity [8] was “Not Active” and the Activity [9] was “Not Active”.
In the case of `CC(=O)O[C@@H]1C[C@@]23C[C@@]24CC[C@H](O[C@@H]2OC[C@@H](O)[C@H](O)[C@H]2O)C(C)(C)[C@@H]4CC=C3[C@]2(C)C[C@@H]3O[C@@]4(O[C@H]4C(C)(C)O)[C@H](O)[C@@H](C)[C@@H]3[C@@]12C`, the Activity [1] is reported as “inactive”, the Activity [2] is reported as “inactive” and the Activity [3] is reported as “Not Active”. For the same compound, the Activity [4] was “inactive”, the Activity [5] was “Not Active” and the Activity [6] was “Not Active”. The Activity [7] was “Not Active”, the Activity [8] was “Not Active” and the Activity [9] was “Not Active”.
In the case of `CC(=O)O[C@@H]1C[C@@]23C[C@@]24CC[C@H](O[C@@H]2OC[C@@H](O)[C@H](O)[C@H]2O)C(C)(C)[C@@H]4CC[C@H]3[C@]2(C)C[C@@H]3O[C@@]4(C[C@@H](C)[C@@H]3[C@@]12C)OC[C@]1(C)O[C@H]41`, the Activity [1] is reported as “inactive”, the Activity [2] is reported as “inactive” and the Activity [3] is reported as “Not Active”. For the same compound, the Activity [4] was “inactive”, the Activity [5] was “Not Active” and the Activity [6] was “Not Active”. The Activity [7] was “Not Active”, the Activity [8] was “Not Active” and the Activity [9] was “Not Active”.
For `CC(=O)O[C@@H]1C[C@@]23C[C@@]24CC[C@H](O[C@@H]2OC[C@@H](O)[C@H](O)[C@H]2O)C(C)(C)[C@@H]4CC[C@H]3[C@]2(C)[C@@H](O)[C@]34O[C@H](C[C@@H](C)[C@@H]3[C@@]12C)[C@@H](C(C)(C)O)O4`, the Activity [1] was “inactive”, the Activity [2] was “inactive” and the Activity [3] was “Not Active”. The Activity [4] was “inactive”, the Activity [5] was “Not Active” and the Activity [6] was “Not Active”. For the same compound, the Activity [7] was “Not Active”, the Activity [8] was “Not Active” and the Activity [9] was “Not Active”.
